Experiment [1] concerns Ssa-PreQ1 RNA (RNA, riboswitch) AGAGGUUCCUAGCUGAUACCCUCUAUAAAAAACUA
The experiment can be described thus: photocrosslinking, streptavidin pull-down, PAGE. Particulars: PreQ1 folding buffer: 100 mM KCl, 1 mM MgCl2; covalent; 50 µM RNA, 75 µM bio-CNV, 35 min; also pulled down from MCF7 total RNA.

The test system is the same in experiment [2]. Nature of the experiment: photocrosslinking, PAGE gel shift. Particulars: PreQ1 folding buffer: 100 mM KCl, 1 mM MgCl2, covalent, 50 µM RNA, 75 µM compound, 365 nm 35 min.
For experiment [3], the system named is Tte PreQ1 RNA (unlabeled) (RNA, riboswitch) CUGGGUCGCAGUAACCCCAGUUAACAAAACAAG
Nature of the experiment: competition with CNV photocrosslinking, PAGE. Particulars: PreQ1 folding buffer: 100 mM KCl, 1 mM MgCl2; PreQ1 0X-10X; dose-dependent inhibition of CNV crosslinking.

Experiment [4] deals with Ssa-PreQ1 RNA (RNA, riboswitch) AGAGGUUCCUAGCUGAUACCCUCUAUAAAAAACUA
Nature of the experiment: competition with bio-CNV photocrosslinking, pull-down, RNAseq. Particulars: PreQ1 folding buffer: 100 mM KCl, 1 mM MgCl2; 1 µM aptamer in MCF7 total RNA, 250 µM bio-CNV, 500 µM PreQ1; enrichment abolished.

Experiment [5] concerns Cy5-labelled Tte PreQ1 RNA (RNA, riboswitch) CUGGGUCGCAGUAACCCCAGUUAACAAAACAAG
Nature of the experiment: microscale thermophoresis. Particulars: 100 mM KCl, 1 mM MgCl2; 50 mM Tris pH 7.5, 5% DMSO, RT; irradiated 365 nm 35 min before MST, covalent, apparent. For orientation: In MST a laser heats a spot of the sample, and binding alters the fluorescence response.

For experiment [6], the system named is Bsu PreQ1 aptamer (RNA, riboswitch) AGAGGUUCUAGCUACACCCUCUAUAAAAAACUAA
Nature of the experiment: photocrosslinking, PAGE gel shift and MALDI-TOF. Particulars: PreQ1 folding buffer: 100 mM KCl, 1 mM MgCl2; covalent; 50 µM RNA, 75 µM CNV, 365 nm 35 min, RT.

Experiment [7] has as its system Oih PreQ1 aptamer (RNA, riboswitch) AGAGGUUCUUAGCUUCAACCCUCUAUAAAAAACUAA
Nature of the experiment: photocrosslinking, PAGE gel shift and MALDI-TOF. Particulars: PreQ1 folding buffer: 100 mM KCl, 1 mM MgCl2; covalent; 50 µM RNA, 75 µM CNV, 365 nm 35 min, RT.

The test system of experiment [8] is Bpu PreQ1 aptamer (RNA, riboswitch) AGAGGUUCUAGCAAAACCCUCUAUAAAAAACUAA
The experiment can be described thus: photocrosslinking, PAGE gel shift and MALDI-TOF. Particulars: PreQ1 folding buffer: 100 mM KCl, 1 mM MgCl2; covalent; 50 µM RNA, 75 µM CNV, 365 nm 35 min, RT.

Experiment [9] concerns Gth PreQ1 aptamer (RNA, riboswitch) AGAGGUUUCUAGCAAAACCCUCUAUAAAAAACUA
The experiment can be described thus: photocrosslinking, PAGE gel shift and MALDI-TOF. Particulars: PreQ1 folding buffer: 100 mM KCl, 1 mM MgCl2; covalent; 50 µM RNA, 75 µM CNV, 365 nm 35 min, RT.

Experiment [10] has as its system Tte PreQ1 RNA (unlabeled) (RNA, riboswitch) CUGGGUCGCAGUAACCCCAGUUAACAAAACAAG
The experiment can be described thus: photocrosslinking, denaturing PAGE and fluorescence. Particulars: PreQ1 folding buffer: 100 mM KCl, 1 mM MgCl2; covalent; 50 µM RNA, 75 µM CNV, 365 nm; 15% crosslinked at 35 min.

Among the data in paper PMC12105704 (2025) are binding and KD values, retold here.

On to `N#C/C=C/c1ccc2[nH]c3ccc(CCCOC(=O)CCCc4cn(CCOCCOCCOCCNC(=O)CCCC[C@@H]5SC[C@@H]6NC(=O)N[C@@H]65)nn4)cc3c2c1`, for which, in experiment [1], the binding result was “yes”.
As for `N#C/C=C/c1ccc2[nH]c3cccnc3c2c1`, in [2] (minimal uncaging at 302 nm), the binding entry is recorded as “yes”.
As for `NCc1c[nH]c2nc(N)[nH]c(=O)c12`, the binding result in experiment [3] and in [4] was “yes” each time.
Turning to `N#C/C=C/c1ccc2[nH]c3ccccc3c2c1`, in experiment [5], the KD stood at 400 ± 200 nM. The binding entry in experiment [2] (reversed at 302 nm), in [6], in [7], in [8], in experiment [9] and in experiment [10] was “yes” throughout.
In the case of `N#C/C=C/c1ccc2[nH]c3ccncc3c2c1`, the binding result in experiment [2] (minimal uncaging at 302 nm) was “yes”.
